Each structure is given as a SMILES string.

A short description of data set [1]: Acute toxicity, lethal dose 50 (Litchfield-Wilcoxon), intraperitoneal. Particulars: mouse, in vivo, ip, mice, deaths recorded three days after administration. Here is the method: (§1) The object of the studies carried out on all the products was to calculate the acute toxicity, expressed in the form of lethal dose 50, and to evaluate the analgesic effect by administering the drugs orally and intraperitoneally.
Tests were carried out on I.C.R. Swiss albino mice of both sexes weighing between 20 and 35 grams. The products were administered intraperitoneally,recording the number of dead animals three days after administration of the drugs. The statistical method used for the calculation of lethal dose 50 was the Litchfield-Wilcoxon method.

The nature of data set [2]: Analgesic effect by oral route (Siegmund technique modified by Koster, 1% acetic acid irritant). Particulars: products 5 mg/kg, dextropropoxyphene = 1. The format is in vivo. As to the method: as §1
(§2) The analgesic effect was evaluated according to the technique of Siegmund et al. (Proc. Soc. Exp. Biol. Med. 95, 729, 1957) modified by Koster et al. (Fed. Proc. 18, 412, 1957), a chemical analgesia test which uses 1% acetic acid as an irritant. The drugs under study were administered at the dose of 1 mg/kg and the reference drug at 25 mg/kg. The evaluation was made 30 minutes after the administrations. The results are given in Table B-1, expressing the results in the form of relative potency (F), giving dextropropoxyphene value 1. [formula]
2. ACTIVITY BY ORAL ROUTE
The foregoing procedure was used, with the difference that the dose of the products under study was 5 mg/kg.

Data set [3] is described as follows: Analgesic effect by intraperitoneal route (Siegmund technique modified by Koster, 1% acetic acid irritant). The format is in vivo. The conditions noted are these: products 1 mg/kg, reference 25 mg/kg, 30 minutes after administration, dextropropoxyphene = 1. As to the method:
There is a series of 19 products, with analgesic activity, the effects whereof were tested using dextropropoxyphene as a reference drug.
as §1
1. ACTIVITY BY INTRAPERITONEAL ROUTE
as §2

As usually defined, the LD50 is the dose expected to kill half of the subjects tested. Low readings indicate a more toxic substance, high ones a less toxic substance. For the compound `CCC(=O)O[C@](Cc1ccccc1)(c1ccccc1)[C@H](C)CN(C)C` [Dextropropoxyphene, dextropropoxyphene, reference compound], in data set [1], the LD50 at 72 h was determined as 140 mg/kg.

Regarding `CC(=O)NC(c1ccncc1)C(NC(C)=O)c1ccncc1` (stereo not shown) [Example 1], in data set [2], the “Analgesic effect by oral route, relative potency F” value is recorded as 0.85. In data set [3], the “Analgesic effect by intraperitoneal route, relative potency F” value was found to be 1.01. In addition, the 50% lethal dose (LD50) at 72 h in data set [1] was determined as 1120 mg/kg.

On to `CCCC(CCC)C(=O)NC(c1ccncc1)C(NC(=O)C(CCC)CCC)c1ccncc1` (stereo not shown) [Example 2], for which the “Analgesic effect by oral route, relative potency F” value in data set [2] amounted to 0.95. Further, the “Analgesic effect by intraperitoneal route, relative potency F” value in data set [3] is 1.43. The median lethal dose (LD50) at 72 h in data set [1] was more than 1600 mg/kg.

`O=C(NC(c1ccncc1)C(NC(=O)c1ccccc1)c1ccncc1)c1ccccc1` (stereo not shown) [Example 3]: the “Analgesic effect by oral route, relative potency F” value in data set [2] came to 1.35. Further, in data set [3], the “Analgesic effect by intraperitoneal route, relative potency F” value came out at 1.21. In addition, the median lethal dose (LD50) at 72 h in data set [1] is more than 1300 mg/kg.

As to `Cc1ccc(C(=O)NC(c2ccncc2)C(NC(=O)c2ccc(C)cc2)c2ccncc2)cc1` (stereo not shown) [Example 4], the “Analgesic effect by oral route, relative potency F” value in data set [2] came out at 1.11. Further, the “Analgesic effect by intraperitoneal route, relative potency F” value in data set [3] is given as 1.04. In data set [1], the LD50 at 72 h is more than 1660 mg/kg.

With `Cc1cccc(C(=O)NC(c2ccncc2)C(NC(=O)c2cccc(C)c2)c2ccncc2)c1` (stereo not shown) [Example 5], the “Analgesic effect by oral route, relative potency F” value in data set [2] amounted to 1.64. For the same compound, in data set [3], the “Analgesic effect by intraperitoneal route, relative potency F” value stood at 1.85. In data set [1], this compound yielded a 50% lethal dose (LD50) at 72 h of more than 1400 mg/kg.

On to `Cc1ccccc1C(=O)NC(c1ccncc1)C(NC(=O)c1ccccc1C)c1ccncc1` (stereo not shown) [Example 6], for which, in data set [2], the “Analgesic effect by oral route, relative potency F” value is 1.67. Further, the “Analgesic effect by intraperitoneal route, relative potency F” value in data set [3] amounted to 1.09. Also, the LD50 at 72 h in data set [1] is more than 1600 mg/kg.

Consider `Cc1cc(C)cc(C(=O)NC(c2ccncc2)C(NC(=O)c2cc(C)cc(C)c2)c2ccncc2)c1` (stereo not shown) [Example 7], for which, in data set [2], the “Analgesic effect by oral route, relative potency F” value is reported as 1.17. Further, the “Analgesic effect by intraperitoneal route, relative potency F” value in data set [3] came out at 1.53. Further, the LD50 at 72 h in data set [1] is more than 1600 mg/kg.

Consider `O=C(NC(c1ccncc1)C(NC(=O)c1ccc(Cl)cc1)c1ccncc1)c1ccc(Cl)cc1` (stereo not shown) [Example 8], for which the “Analgesic effect by oral route, relative potency F” value in data set [2] turned out to be 1.29. The “Analgesic effect by intraperitoneal route, relative potency F” value in data set [3] came to 1.58. In data set [1], the 50% lethal dose (LD50) at 72 h was more than 1600 mg/kg.

Consider `O=C(NC(c1ccncc1)C(NC(=O)c1cccc(Cl)c1)c1ccncc1)c1cccc(Cl)c1` (stereo not shown) [Example 9], for which the “Analgesic effect by oral route, relative potency F” value in data set [2] is 1.05. In data set [3], the “Analgesic effect by intraperitoneal route, relative potency F” value is recorded as 1.08. The same compound displayed an LD50 at 72 h in data set [1] of more than 1300 mg/kg.

With `O=C(NC(c1ccncc1)C(NC(=O)c1ccccc1Cl)c1ccncc1)c1ccccc1Cl` (stereo not shown) [Example 10], in data set [2], the “Analgesic effect by oral route, relative potency F” value stood at 1.34. In addition, the “Analgesic effect by intraperitoneal route, relative potency F” value in data set [3] was found to be 1.37. Moreover, the median lethal dose (LD50) at 72 h in data set [1] amounted to 1060 mg/kg.

`O=C(NC(c1ccncc1)C(NC(=O)c1cc(Cl)cc(Cl)c1)c1ccncc1)c1cc(Cl)cc(Cl)c1` (stereo not shown) [Example 11]: the “Analgesic effect by oral route, relative potency F” value in data set [2] came to 1.22. Moreover, the “Analgesic effect by intraperitoneal route, relative potency F” value in data set [3] came to 0.84. The 50% lethal dose (LD50) at 72 h in data set [1] is more than 1200 mg/kg.

Consider `O=C(NC(c1ccncc1)C(NC(=O)c1ccc(F)cc1)c1ccncc1)c1ccc(F)cc1` (stereo not shown) [Example 12], for which the “Analgesic effect by oral route, relative potency F” value in data set [2] is 0.81. The “Analgesic effect by intraperitoneal route, relative potency F” value in data set [3] is 1.17. The compound also returned a 50% lethal dose (LD50) at 72 h in data set [1] of 1110 mg/kg.

In the case of `O=C(NC(c1ccncc1)C(NC(=O)c1ccc(C(F)(F)F)cc1)c1ccncc1)c1ccc(C(F)(F)F)cc1` (stereo not shown) [Example 13], in data set [2], the “Analgesic effect by oral route, relative potency F” value is recorded as 1.19. For the same compound, the “Analgesic effect by intraperitoneal route, relative potency F” value in data set [3] is 1.38. The LD50 at 72 h in data set [1] was more than 1200 mg/kg.

For `COc1ccc(C(=O)NC(c2ccncc2)C(NC(=O)c2ccc(OC)cc2)c2ccncc2)cc1` (stereo not shown) [Example 14], in data set [2], the “Analgesic effect by oral route, relative potency F” value was determined as 1.23. Further, the “Analgesic effect by intraperitoneal route, relative potency F” value in data set [3] came to 1.09. The compound also gave a median lethal dose (LD50) at 72 h in data set [1] of more than 1600 mg/kg.

As to `CS(=O)(=O)c1ccc(C(=O)NC(c2ccncc2)C(NC(=O)c2ccc(S(C)(=O)=O)cc2)c2ccncc2)cc1` (stereo not shown) [Example 15], the “Analgesic effect by oral route, relative potency F” value in data set [2] stood at 1.05. The “Analgesic effect by intraperitoneal route, relative potency F” value in data set [3] is given as 1.43. For the same compound, in data set [1], the median lethal dose (LD50) at 72 h was more than 2000 mg/kg.

Turning to `O=C(NC(c1ccncc1)C(NC(=O)c1ccc([N+](=O)[O-])cc1)c1ccncc1)c1ccc([N+](=O)[O-])cc1` (stereo not shown) [Example 16], the “Analgesic effect by oral route, relative potency F” value in data set [2] is listed as 1.25. In data set [3], the “Analgesic effect by intraperitoneal route, relative potency F” value stood at 1.38. Further, in data set [1], the LD50 at 72 h was more than 1600 mg/kg.

As to `CC(C)(C)c1ccc(C(=O)NC(c2ccncc2)C(NC(=O)c2ccc(C(C)(C)C)cc2)c2ccncc2)cc1` (stereo not shown) [Example 17], in data set [2], the “Analgesic effect by oral route, relative potency F” value was determined as 1.17. Moreover, the “Analgesic effect by intraperitoneal route, relative potency F” value in data set [3] is on record as 1.11. In data set [1], this compound displayed a 50% lethal dose (LD50) at 72 h of more than 1600 mg/kg.

Take `O=C(Cc1ccccc1)NC(c1ccncc1)C(NC(=O)Cc1ccccc1)c1ccncc1` (stereo not shown) [Example 18]: the “Analgesic effect by oral route, relative potency F” value in data set [2] is recorded as 2.13. In addition, in data set [3], the “Analgesic effect by intraperitoneal route, relative potency F” value is 0.96. The compound also yielded an LD50 at 72 h in data set [1] of 1540 mg/kg.

Regarding `O=C(NC(c1ccncc1)C(NC(=O)c1ccc(-c2ccccc2)cc1)c1ccncc1)c1ccc(-c2ccccc2)cc1` (stereo not shown) [Example 19], in data set [2], the “Analgesic effect by oral route, relative potency F” value was found to be 1.13. Moreover, the “Analgesic effect by intraperitoneal route, relative potency F” value in data set [3] stood at 1.08. The compound also showed an LD50 at 72 h in data set [1] of more than 1600 mg/kg.

The record behind these values is patent US4288597A, “1,2-Diacylamino-1,2-di(4-pyridyl)ethanes and process for producing thereof” (Laboratorios Made, S.A., priority 1979, dated 1981).
